Entries after “also recorded” stand apart in the source; their conditions may differ.
Experiments:
[1] = molecular target: T1, MMP-2 (Homo sapiens, UniProt P08253); assay: Gelatin zymography of medium of PMA-stimulated THP-1 cells; format: cell-based; details: 100 µM, 18 h, compared to controls
T1 sequence (P08253 110-660): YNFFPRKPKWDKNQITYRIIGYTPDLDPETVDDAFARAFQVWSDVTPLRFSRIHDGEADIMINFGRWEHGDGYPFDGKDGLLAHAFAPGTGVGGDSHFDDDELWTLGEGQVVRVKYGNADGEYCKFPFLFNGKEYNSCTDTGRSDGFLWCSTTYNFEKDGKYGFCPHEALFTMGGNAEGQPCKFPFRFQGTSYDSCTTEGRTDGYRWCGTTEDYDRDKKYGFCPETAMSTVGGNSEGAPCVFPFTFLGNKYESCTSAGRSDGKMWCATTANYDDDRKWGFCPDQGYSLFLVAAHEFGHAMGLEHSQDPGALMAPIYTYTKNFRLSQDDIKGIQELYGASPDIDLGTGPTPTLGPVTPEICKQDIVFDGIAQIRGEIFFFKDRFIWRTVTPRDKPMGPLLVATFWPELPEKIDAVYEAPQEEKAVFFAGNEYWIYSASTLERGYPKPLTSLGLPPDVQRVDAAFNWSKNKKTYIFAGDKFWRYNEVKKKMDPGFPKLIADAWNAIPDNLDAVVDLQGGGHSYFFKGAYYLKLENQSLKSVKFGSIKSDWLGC
Procedure: THP-1 cells were plated in 12-well plates at a density of 1 × 10^6 cells per well. First, THP-1 were treated with phorbol-12-myristate-13-acetate (PMA) for 24 h to promote the differentiation of cells into macrophages and stimulate MMP secretion. […] For each treatment, biological triplicate samples were utilized. Following treatment, cell medium was collected from each well and centrifuged at 800 × g for 10 min at 4 °C to remove any cell debris. Collected samples were stored at − 80 °C for further analysis. A 10% SDS–polyacrylamide gel containing 0.1% gelatin was loaded with 3 µg of protein from cell medium for gelatin zymography. In parallel, second 10% SDS–polyacrylamide gel was used to assess equal protein loading. In addition, recombinant human MMP-2 and MMP-9 (10 ng each) were loaded as standards (EMD Millipore, Burlington, MA). Gel ran at 60 V until the loading dye reached the bottom of the gel. After the run, the gelatin gel was washed with water for 15 min and incubated in renaturation buffer [2.5% (v/v) Triton X-100 in Milli-Q water] for 60 min at room temperature. The renaturation buffer was replaced with a fresh renaturation buffer at the interval of 30 min. […] Relative activity of MMPs was measured by quantitating band density by ImageJ software and normalized with respective standard.

[2] = system: THP-1 cells; assay: MTT cytotoxicity assay; format: cell-based; details: THP-1 cells, 1, 10 or 100 µM, 18 h
Procedure: THP-1 cells were plated in 96-well plates at a density of 0.08 × 10^6 cells per well. […] Vehicle-treated cells were used as controls. For each treatment, twelve samples were utilized. Cells were washed with PBS and incubated with 100 μL/well of MTT solution (5 mg/mL) for 45 min at 37 °C. After incubation, MTT solution was removed, and DMSO (200 μL) was added to each well. Absorbance was measured at 490 nm on a Molecular Devices SpectraMax M3 plate reader with SoftMax […].2 software (Sunnyvale, CA). Absorbance was compared to that of control cells to determine cytotoxicity.

[3] = system: infants born to women receiving DTG at conception; details: cited from earlier work
[4] = molecular target: MMP-9 (Homo sapiens, UniProt P14780); assay: Fluorometric substrate assay (MMP inhibitor profiling kit); format: biochemical; design: purchased Enzo life sciences BML-AK308
Procedure: (§1) Kit contained a panel of ten MMPs and a quenched fluorogenic substrate OMNIMMP® RED. Composition of a quenched fluorogenic substrate was TQ3-GABA-Pro-Cha-Abu-Smc-His-Ala-Dab(6’-TAMRA)-Ala-Lys-NH2 [TQ3 = quencher; GABA = 4-aminobutyric acid; Cha = L-cyclohexylalanine; Abu = 2-aminobutyric acid; Smc = S-methyl-L-cysteine; Dab = 2,4-diaminobutyric acid; 6’-TAMRA = 6’-tetramethylrhodamine]. Experiment was performed as per instructions provided in the manufacturer’s manual. The assays were performed in a 96-well, black, flat, microplate format. The compound NNGH was provided as a prototypic control inhibitor. […] Untreated MMPs were used as control. The experiment was performed in biological triplicates. After 60-min incubation, fluorogenic substrate OMNIMMP® RED was added to each reaction/well to start the reaction. The plate was continuously read at Ex/Em = 545/576 nm (cutoff at 570 nm) for 30 min with 1-min time intervals at constant temperature, 37 °C, using Molecular Devices SpectraMax M3 plate reader with SoftMax Pro 6.2 software.

[5] = molecular target: T1, MMP-2; assay: as above; format: biochemical; design: purchased Enzo life sciences BML-AK308
Procedure: as §1

MMP-9, sequence (P14780 94-707): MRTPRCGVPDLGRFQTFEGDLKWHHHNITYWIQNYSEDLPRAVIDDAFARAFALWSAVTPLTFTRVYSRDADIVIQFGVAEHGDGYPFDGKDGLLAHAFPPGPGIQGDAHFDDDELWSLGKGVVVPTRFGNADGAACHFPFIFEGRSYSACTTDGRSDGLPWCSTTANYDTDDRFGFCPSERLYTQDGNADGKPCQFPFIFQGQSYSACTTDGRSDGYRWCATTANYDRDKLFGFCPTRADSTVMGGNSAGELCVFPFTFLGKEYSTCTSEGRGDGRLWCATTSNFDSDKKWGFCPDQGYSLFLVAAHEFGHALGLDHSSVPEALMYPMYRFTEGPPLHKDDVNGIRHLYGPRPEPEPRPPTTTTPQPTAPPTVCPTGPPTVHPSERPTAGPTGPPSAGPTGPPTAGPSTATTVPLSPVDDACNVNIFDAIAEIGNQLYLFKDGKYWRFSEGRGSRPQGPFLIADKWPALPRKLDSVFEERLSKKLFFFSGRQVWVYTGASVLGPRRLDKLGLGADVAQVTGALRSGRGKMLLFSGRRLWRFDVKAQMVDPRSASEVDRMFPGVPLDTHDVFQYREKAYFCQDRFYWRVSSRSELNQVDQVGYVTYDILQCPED

## C[C@@H]1CCO[C@H]2Cn3cc(C(=O)NCc4ccc(F)cc4F)c(=O)c(O)c3C(=O)N12 [DTG, Dolutegravir]
[1]
  Relative activity of pro and active forms of MMP-2: significantly decreased
[2]
  Cytotoxicity (cellular viability, MTT): Cytotoxicity was not observed at any concentration; also recorded: no DTG-induced cytotoxicity
[3]
  overall clinical prevalence of NTDs among infants born to women receiving DTG at conception: ~ 0.3%
[3]; extended surveillance in Botswana
  risk of NTDs relative to other ARTs at conception: 2–3 times
[4]; MMP-9, 20 µM
  inhibitory effect compared to doxycycline: higher inhibitory effect
[4]; human recombinant MMP-9, 60 min preincubation, four-parameter fit
  IC50: 11.1 µM
[5]; MMP-2, 20 µM
  inhibitory effect compared to doxycycline: higher inhibitory effect
[5]; human recombinant MMP-2, 60 min preincubation, four-parameter fit
  IC50: 16.9 µM

Reference: PMC8599359 (Molecular Neurobiology, 2021)
